Measured values reported in PMC7582571, “The First Berberine-Based Inhibitors of Tyrosyl-DNA Phosphodiesterase 1 (Tdp1), an Important DNA Repair Enzyme” (International Journal of Molecular Sciences, 2020).
Where “and” joins values, the source holds several entries; their conditions need not be identical. Identical values can stand only once. Entries after “also recorded” stand apart in the source; their conditions may differ. Like-named read-outs stand apart in the source and are kept apart here.

Experiments:
Tdp1 = Tdp1 (Homo sapiens, UniProt Q9NUW8); experiment: Tdp1 activity, real-time fluorescence oligonucleotide biosensor (FAM/BHQ1) assay; format: biochemical
Excerpt: An oligonucleotide real-time biosensor was used based on the ability of Tdp1 to remove fluorophore quenchers from the 3′-end of DNA, as previously described. The hexadecameric oligonucleotide carried 5(6)-carboxyfluorescein (FAM) at the 5′-end and the fluorophore quencher BHQ1 (Black Hole Quencher-1) at the 3′-end. Tdp1 inhibitors prevent removal of fluorophore quenchers, thus reducing fluorescence intensity.
The methodology has been reported in our previous work and consists of fluorescence intensity measurement in a reaction of quencher removal from a fluorophore quencher-coupled DNA oligonucleotide catalyzed by Tdp1. The reaction was carried out at different concentrations of inhibitors (the control samples contained 1% of DMSO, Sigma, St. Louis, MO, USA). The reaction mixtures contained Tdp1 buffer (50 mM Tris-HCl pH 8.0, 50 mM NaCl, and 7 mM β-mercaptoethanol), 50 nM biosensor, and an inhibitor being tested. Purified Tdp1 (1.5 nM) triggered the reaction. The biosensor (5′-[FAM] AAC GTC AGGGTC TTC C [BHQ]-3′) was synthesized in the Laboratory of Biomedical Chemistry at the Institute of Chemical Biology and Fundamental Medicine (Novosibirsk, Russia).
The reactions were incubated on a POLARstar OPTIMA fluorimeter (BMG LABTECH, GmbH, Ortenberg, Germany) to measure fluorescence every 55 s (ex. 485/em. 520 nm) during the linear phase (here, data from minute 0 to minute 8). The values of IC50 were determined using a six-point concentration response curve in minimum three independent experiments and were calculated using MARS Data Analysis 2.0 (BMG LABTECH, GmbH, Ortenberg, Germany).

[1] = Intrinsic cytotoxicity, EZ4U cell proliferation and cytotoxicity assay; format: cell-based, human; details: human, HeLa cells, compound alone, 3 days, read-out: CC50 (half maximal cytotoxic concentration)
Excerpt: (§1) Top1 poisons are used as anticancer drugs for the treatment for various oncological diseases. Since Tdp1 is involved in the removal of DNA damage caused by Top1 poisons, the activity of Tdp1 can lead to the development of drug resistance. Thus, it is believed that Tdp1 inhibition can enhance the efficacy of Top1 poisons. Tdp1 inhibitors should have the lowest possible intrinsic toxicity to minimize potential side effects. Therefore, we studied the intrinsic cytotoxicity of the compounds against HeLa cells (cervical carcinoma). EZ4U cell proliferation and cytotoxicity assay results are shown in Figure 4 for the ligands with Tdp1 inhibitory activity.
(§2) The cell culture was monitored for 3 days.

HeLa cells [2] = experiment: cells; details: for effect of topotecan on the cytotoxicity of the Tdp1 inhibitor (in words): Mann–Whitney U-test; for CC50: Homo sapiens, HeLa
Description: For comparison, the concentration of the inhibitors was increased to 20 μM.
Cytotoxicity of the compounds to HeLa (human cervical cancer) cell line was examined using the EZ4U Cell Proliferation and Cytotoxicity Assay (Biomedica, Vienna, Austria), according to the manufacturer’s protocols. The cells were grown in Iscove’s modified Dulbecco’s medium (IMDM) with 40 μg/mL gentamicin, 50 IU/mL penicillin, 50 μg/mL streptomycin (MP Biomedicals, Santa Ana, CA, USA), and 10% of fetal bovine serum (Biolot, St. Petersburg, Russia) in a 5% CO2 atmosphere. After formation of a 30–50%-monolayer, the tested compounds were added to the medium. The volume of the added reagents was 1/100 of the total volume of the culture medium, and the amount of DMSO (Sigma, St. Louis, MO, USA) was 1% of the final volume. Control cells were grown in the presence of 1% DMSO. The cell culture was monitored for 3 days. To assess the influence of the inhibitors on the cytotoxic effect of topotecan (ACTAVIS GROUP PTC ehf., Bucharest, Romania), 50% cytotoxic concentrations of topotecan and of each inhibitor were determined to attain a defined single-agent effect. Then, minimum two independent tests were performed with each inhibitor in combination with topotecan. When using a combination of drugs, Tdp1 inhibitors were first added, then topotecan was added immediately (within 10–15 min).

HeLa cells [3] = experiment: Intrinsic cytotoxicity, EZ4U cell proliferation and cytotoxicity assay; format: cell-based, human; details: for Intrinsic toxicity to HeLa cells (in words): without topotecan; for CC50: compound alone, 3 days, read-out: CC50 (half maximal cytotoxic concentration)
Excerpt: as §1, §2

[4] = purified Tdp1 1.5 nM, 50 nM biosensor, read-out: IC50 (Tdp1 inhibiting activity)
[5] = Tdp1, values of supplementary Table S1 (less rounded), read-out: IC50 (µM), Table S1

Tdp1, sequence (Q9NUW8 whole entry): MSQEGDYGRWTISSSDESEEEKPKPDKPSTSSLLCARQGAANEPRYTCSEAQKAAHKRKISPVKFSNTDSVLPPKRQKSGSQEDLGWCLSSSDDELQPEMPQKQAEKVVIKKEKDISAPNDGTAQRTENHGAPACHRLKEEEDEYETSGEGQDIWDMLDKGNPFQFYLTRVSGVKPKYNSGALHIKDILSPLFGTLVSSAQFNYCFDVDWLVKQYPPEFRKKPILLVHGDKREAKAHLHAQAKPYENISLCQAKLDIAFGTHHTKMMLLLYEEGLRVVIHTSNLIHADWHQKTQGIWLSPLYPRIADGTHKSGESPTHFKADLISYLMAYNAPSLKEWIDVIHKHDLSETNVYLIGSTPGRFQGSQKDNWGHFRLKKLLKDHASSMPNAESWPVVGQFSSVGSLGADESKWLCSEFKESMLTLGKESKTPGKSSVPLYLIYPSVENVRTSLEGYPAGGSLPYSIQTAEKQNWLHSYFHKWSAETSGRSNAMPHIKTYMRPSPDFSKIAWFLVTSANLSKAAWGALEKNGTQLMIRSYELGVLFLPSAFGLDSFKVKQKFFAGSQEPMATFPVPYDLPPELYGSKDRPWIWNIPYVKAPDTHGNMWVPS

SMILES | IC50 (Tdp1; [4]) | CC50 at 3 days [1] [µM] | IC50 (Tdp1; [5]) [µM] | effect of topotecan on the cytotoxicity of the Tdp1 inhibitor (in words) (HeLa cells [2]; HeLa cells, 2 μM topotecan) | other results
CCCCS(=O)(=O)Oc1c(OC)ccc2cc3[n+](cc12)CCc1cc2c(cc1-3)OCO2 [10d, 9-(Butane-1-sulfonyl)oxy-10-methoxy-2,3-methylenedioxy protoberberine chloride] | > 15 µM | – | – | – | –
COc1cc(Br)c2c(c1OS(C)(=O)=O)CN1CCc3cc4c(cc3C1C2)OCO4 (stereo not shown) [12a] | > 15 µM | – | – | – | –
COc1ccc2c(c1OS(=O)(=O)c1c(F)c(F)c(C(F)(F)F)c(F)c1F)CN1CCc3cc4c(cc3C1C2)OCO4 (stereo not shown) [11h] | 0.9 ± 0.2 µM | 2.6 ± 0.1 | 0.93 ± 0.22 | negligible or unreliable | –
CCCS(=O)(=O)Oc1c(OC)cc(Br)c2c1CN1CCc3cc4c(cc3C1C2)OCO4 (stereo not shown) [12c] | 2.9 ± 1.3 µM | > 100 | 2.86 ± 1.25 | negligible or unreliable | Intrinsic toxicity to HeLa cells (in words) (HeLa cells [3]): non-toxic up to 100 μM
CC[C@@]1(O)C(=O)OCc2c1cc1n(c2=O)Cc2cc3c(CN(C)C)c(O)ccc3nc2-1 [topotecan, reference compound] | – | 2 | – | – | CC50 (HeLa cells [2]; read-out: CC50, μM–5 μM Tdp1 inhibitor (cytotoxic potential of topotecan)): 6.8 ± 1.1 µM; CC50 (HeLa cells [2]; read-out: CC50, μM–20 μM Tdp1 inhibitor (cytotoxic potential of topotecan)): 6.8 ± 1.1 µM
COc1ccc2cc3[n+](cc2c1OC)CCc1cc2c(cc1-3)OCO2 [compound 9, berberine] | – | – | > 15 | – | –
COc1ccc2c(c1OS(=O)(=O)c1c(F)c(F)c(F)c(F)c1F)CN1CCc3cc4c(cc3C1C2)OCO4 (stereo not shown) [11f] | ~1 µM and 1 µM | 10 | 0.98 ± 0.2 | significantly increased | cell death (HeLa cells [3]; 5 μM): 20%; cells that die (HeLa cells [3]; 20 μM): 90%; CC50 (HeLa cells [3]): 11 ± 2 µM; decrease of CC50 in the presence of topotecan (fold) (HeLa cells [2]; HeLa cells, 2 μM topotecan): three fold
COc1cc(Br)c2c(c1OS(=O)(=O)c1c(F)c(F)c(F)c(F)c1F)CN1CCc3cc4c(cc3C1C2)OCO4 (stereo not shown) [12f] | 0.53 ± 0.01 µM | 10 | – | negligible or unreliable | CC50 (HeLa cells [3]): 9.9 ± 4.5 µM
COc1ccc2c(c1OS(=O)(=O)c1ccc(C)cc1)CN1CCc3cc4c(cc3C1C2)OCO4 (stereo not shown) [11e] | > 15 µM | – | – | – | Tdp1 inhibitory activity (in words) (Tdp1): inactive
COc1cc(Br)c2c(c1OS(=O)(=O)c1ccc(C)cc1)CN1CCc3cc4c(cc3C1C2)OCO4 (stereo not shown) [12e] | > 15 µM | – | – | – | Tdp1 inhibitory activity (in words) (Tdp1): inactive
CCCS(=O)(=O)Oc1c(OC)ccc2cc3[n+](cc12)CCc1cc2c(cc1-3)OCO2 [10c, 10-Methoxy-2,3-methylenedioxy-9-((propane-1-sulfonyl)oxy)protoberberine chloride] | > 15 µM | – | – | – | –
COc1ccc2c(c1OS(C)(=O)=O)CN1CCc3cc4c(cc3C1C2)OCO4 (stereo not shown) [11a] | > 15 µM | – | – | – | –
COc1cc(Br)c2c(c1OS(=O)(=O)c1c(F)c(F)c(C(F)(F)F)c(F)c1F)CN1CCc3cc4c(cc3C1C2)OCO4 (stereo not shown) [12h] | 1.4 ± 0.3 µM | 2.2 ± 1.5 | 1.38 ± 0.3 | negligible or unreliable | –
CCCCS(=O)(=O)Oc1c(OC)cc(Br)c2c1CN1CCc3cc4c(cc3C1C2)OCO4 (stereo not shown) [12d] | 4 ± 1 µM | > 100 | 4.06 ± 1.05 | negligible or unreliable | Intrinsic toxicity to HeLa cells (in words) (HeLa cells [3]): non-toxic up to 100 μM
CCS(=O)(=O)Oc1c(OC)ccc2cc3[n+](cc12)CCc1cc2c(cc1-3)OCO2 [10b, 9-Ethanesulfonyloxy-10-methoxy-2,3-methylenedioxyprotoberberine chloride] | > 15 µM | – | – | – | –
CCCS(=O)(=O)Oc1c(OC)ccc2c1CN1CCc3cc4c(cc3C1C2)OCO4 (stereo not shown) [11c] | > 15 µM | – | – | – | –
COc1ccc2c(c1OS(=O)(=O)c1c(F)c(F)cc(F)c1F)CN1CCc3cc4c(cc3C1C2)OCO4 (stereo not shown) [11g] | 1.05 ± 0.05 µM | > 100 | 1.05 ± 0.05 | significantly increased | living cells (HeLa cells [3]; 100 μM maximum concentration): 100%; Intrinsic toxicity to HeLa cells (in words) (HeLa cells [3]): low toxicity; also recorded: nontoxic; sensitizing effect on the cytotoxicity of topotecan (in words) (HeLa cells [2]; HeLa cells): doubled; also recorded: significant effect; also recorded: pronounced sensitizing effect; also recorded: sensitized the cancer cells to topotecan; decrease in cell survival in the presence of topotecan (HeLa cells [2]; HeLa cells, 2 μM topotecan, at all inhibitor concentrations): ~ 30%
CCS(=O)(=O)Oc1c(OC)cc(Br)c2c1CN1CCc3cc4c(cc3C1C2)OCO4 (stereo not shown) [12b] | > 15 µM | – | – | – | –
CCCCS(=O)(=O)Oc1c(OC)ccc2c1CN1CCc3cc4c(cc3C1C2)OCO4 (stereo not shown) [11d] | > 15 µM | – | – | – | –
COc1ccc2cc3[n+](cc2c1OS(C)(=O)=O)CCc1cc2c(cc1-3)OCO2 [10a, 10-Methoxy-9-methanesulfonyloxy-2,3-methylenedioxyprotoberberine chloride] | > 15 µM | – | – | – | –
CCS(=O)(=O)Oc1c(OC)ccc2c1CN1CCc3cc4c(cc3C1C2)OCO4 (stereo not shown) [11b] | > 15 µM | – | – | – | –
COc1cc(Br)c2c(c1OS(=O)(=O)c1c(F)c(F)cc(F)c1F)CN1CCc3cc4c(cc3C1C2)OCO4 (stereo not shown) [12g] | 1.3 ± 0.3 µM | 95 ± 5 | 1.33 ± 0.28 | significantly increased | sensitizing effect on the cytotoxicity of topotecan (in words) (HeLa cells [2]; HeLa cells): doubled; also recorded: significant effect; also recorded: pronounced sensitizing effect; also recorded: sensitized the cancer cells to topotecan
